This note sets out measurements from PubChem BioAssay AID2060906 (Molecular Pharmacology Branch, DTP, NCI, 2025).

The assay has as its system 485176-168-R4-J1-PDC complex spheroid growth. Put plainly: Anticancer human tumor 485176-168-R4-J1-PDC patient-derived pancreatic adenocarcinoma cell line growth inhibition [RAS]. As to conditions: for viability, T/C: stronger effect = lower value. The source says:
RAS pathway inhibitors in Combinations in Complex Spheroids
A high-throughput screen of multi-cell type tumor spheroids was designed to identify active combinations of RAS pathway inhibitors and targeted small molecules. Complex spheroids include a stromal component modeled by human endothelial cells (HUVEC) and fibroblasts modeled by human mesenchymal stem cells (MSCs). The concentration ranges selected for each drug and investigational agent were based upon clinically achievable concentrations if the clinical Cmax of the agent was known.
Compounds. The drugs and investigational agents: abemaciclib (NSC768073), cobimetinib (NSC768068), divarasib (GDC6063, NSC841802), docetaxel (NSC628503), GDC-1971 (RLY-1971, NSC841576), gemcitabine (NSC613327), inavolisib (NSC800729), ipatasertib (NSC767898), KB-0742 (NSC834161), MRTX-1133 (NSC836407), osimertinib (NSC779217), RMC-4630 (NSC839698), RMC-6236 (NSC851965), RMC-6291 (NSC852671), Ro-3306 (NSC812927), sapanisertib (NSC764658), SN-38 (NSC673596), staurosporine (NSC755774), SY5609 (NSC837396), and tovorafenib (DAY101, NSC766906), were obtained from the National Cancer Institute (NCI) Developmental Therapeutics Program Chemical Repository. The FDA-approved anticancer drug set is available from the NCI Developmental Therapeutics Program. […] The stock solutions were prepared in dimethyl sulfoxide (DMSO, Sigma-Aldrich, St. Louis, MO, cat. D2650) at 800-fold the tested concentration and stored at -70 degrees C prior to their use. All drugs and investigational agents were tested over a range starting from a high concentration at or near the clinical Cmax and decreasing in half-log increments. If the clinical Cmax for an agent had not been determined, the highest concentration tested was 10 microM.
Cell Culture. All cells were maintained in an incubator at 37 degrees C and 5% CO2 with 95% humidity. The PDC lines were cultured according to standard operating procedures established by the NCI PDMR. All PDCs were thawed and cultured in Matrigel-coated flasks prepared with a working solution of 1X Ham's F-12 nutrient mix, without supplementation (Invitrogen, Waltham, MA, cat. 11765054), 100 U/mL penicillin-streptomycin (Invitrogen, cat. 15140122), and 2.5% Matrigel (Corning Inc., Corning, NY, cat. 354248) for the first three passages. The 362531-283-R-J2-PDC and 782815-120-R-J1-PDC lines were cultured in 6C/Colon 1B media, which includes advanced DMEM/F-12 (Thermo Fisher Scientific, cat. 12634028), 10 mM HEPES (Thermo Fisher Scientific, cat. 15630080), 1X GlutaMAX supplement (Thermo Fisher Scientific, cat. 35050061), 0.1 mg/mL primocin (InvivoGen, San Diego, CA, cat. ant-pm-2), 10% defined fetal bovine serum, heat inactivated (HyClone Laboratories Inc., Logan, UT, cat. SH30070.03HI), 50% L-WRN conditioned media (ATCC, cat. CRL-3276), 1.25 mM N-Acetyl-L-cysteine (Sigma-Aldrich, cat. A9165), 10 mM nicotinamide (Sigma-Aldrich, cat. N0636), 1X B-27 supplement (Thermo Fisher Scientific, cat. 17504044), 1X N-2 supplement (Thermo Fisher Scientific, cat. 17502048), 50 ng/mL human EGF (Thermo Fisher Scientific, cat. PHG0311), and 10 microM Y-27632 dihydrochloride (Tocris Bioscience, cat. 1254). The K12877-001-R-J1-PDC line was cultured in 6I media, which includes all 6C/Colon 1B media plus 10 ng/mL human FGF-10 (PeproTech, cat. 100-26), 1 ng/mL human FGF-2 (PeproTech, cat. 100-18B), 1 µM prostaglandin E2 (Tocris Bioscience, cat. 2296), […] hydrocortisone (Sigma-Aldrich, cat. H4001), and […] bovine insulin (Sigma-Aldrich, cat. I6634). The K86415-001-R-J1-PDC line was cultured in 6D media, which includes all 6C/Colon 1B media components minus the L-WRN conditioned media. The 485176-168-R4-J1-PDC was cultured in PANC media, which includes all 6C/Colon 1B media plus 100 ng/mL human FGF-10 (PeproTech, cat. 100-26), 500 nM SB-431542 (Selleckchem, cat. S1067), and 10 nM gastrin (Tocris Bioscience, cat. 3006). […]

Where [1] appears, read: compound alone, run of 06/10/2024.

Values joined by “and” are separate entries in the source; they are usually repeats but may differ in a detail not shown here. Equal values may be shown once.
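Note: spheroids exposed to compounds for seven days before readout.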
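Throughout, for viability, T/C: luminescence viability expressed relative to DMSO vehicle wells set as 100%.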

On to `C#Cc1c(F)ccc2cc(O)cc(-c3ncc4c(N5CC6CCC(C5)N6)nc(OCC56CCCN5CC(F)C6)nc4c3F)c12` (configuration not stated), for which the viability, T/C (in general, the ratio of treated to control) (compound 0.1 µM) was 102% [middle of 8 runs]; the viability, T/C (compound 0.316 µM) is 97.6% [middle of 8 runs]; the viability, T/C (compound 1 µM) is 94% [middle of 8 runs]; the viability, T/C (compound 3.16 µM) was 99.5% [middle of 8 runs]; the viability, T/C (compound 10 µM) was 95.7% [middle of 8 runs]. Further, under setting [1], the IC50 (in general, the concentration needed to halve the response being measured) was greater than 10 µM.

`C=CC(=O)N1CCN(c2nc(OCC3CCCN3C)nc3c(F)c(-c4nc(N)cc(C)c4C(F)(F)F)c(Cl)cc23)C(C)C1` (configuration not stated): the viability, T/C (compound 0.1 µM) was 98.5% [middle of 12 runs] and the viability, T/C (compound 1 µM) is 102% [middle of 12 runs]. The IC50 is, setting by setting: under setting [1], greater than 1 µM; (curve of compound) greater than 1 µM.

With `CC(=O)OC12COC1CC(O)C1(C)C(=O)C(O)C3=C(C)C(OC(=O)C(O)C(NC(=O)OC(C)(C)C)c4ccccc4)CC(O)(C(OC(=O)c4ccccc4)C21)C3(C)C` (configuration not stated), the viability, T/C runs as follows: (compound 0.0316 µM) 15.6% [middle of 4 runs]; (compound 0.1 µM) 14.3% [middle of 4 runs]; (compound 0.316 µM) 12.7% [middle of 4 runs]; (compound 1 µM) 13.4% and 12.8% and 14.2% (2×); (compound 3.16 µM) 17.2% [middle of 4 runs]; (compound 10 µM) 17.7% and 22.4% (2×) and 25.1%. Besides, the 50% inhibitory concentration (IC50) (curve of compound) was less than 0.0316 µM.

On to `Cc1nc(N2CCC3(CC2)COC(C)C3N)c(CO)nc1Sc1ccnc(N)c1Cl` (configuration not stated), for which the viability, T/C (compound 0.0316 µM) is 102% [middle of 4 runs]; the viability, T/C (compound 0.1 µM) is 86.5% [middle of 4 runs]; the viability, T/C (compound 0.316 µM) is 82.8% [middle of 4 runs]; the viability, T/C (compound 1 µM) was 74.3% [middle of 4 runs]; the viability, T/C (compound 3.16 µM) is 84.5% [middle of 4 runs]; the viability, T/C (compound 10 µM) was 63.4% (2×) and 81.9% and 74.9%. For the same compound, the IC50 (curve of compound) was greater than 10 µM.

As to `NC1c2ccccc2OC12CCN(c1cnc3c(N4CCCc5ncccc54)n[nH]c3n1)CC2` (configuration not stated), the viability, T/C runs as follows: (compound 0.1 µM) 79.2% [middle of 4 runs]; (compound 0.316 µM) 86.1% [middle of 4 runs]; (compound 1 µM) 85.1% [middle of 4 runs]; (compound 3.16 µM) 84.5% [middle of 4 runs]; (compound 10 µM) 72.2% [middle of 4 runs]. Further, the IC50 (curve of compound) was greater than 10 µM.

Take `C=CC(=O)Nc1cc(Nc2nccc(-c3cn(C)c4ccccc34)n2)c(OC)cc1N(C)CCN(C)C` + C#Cc1c(F)ccc2cc(O)cc(-c3ncc4c(N5CC6CCC(C5)N6)nc(OCC56CCCN5CC(F)C6)nc4c3F)c12: the IC50 was greater than 1 µM (curve of first compound, second compound 0.0316 µM); greater than 1 µM (curve of first compound, second compound 0.1 µM); greater than 1 µM (curve of first compound, second compound 0.316 µM); greater than 1 µM (curve of first compound, second compound 1 µM); greater than 1 µM (curve of first compound, second compound 3.16 µM); greater than 1 µM (curve of first compound, second compound 10 µM). Further, the viability, T/C (second compound 0.0316 µM, first compound 0.00316 µM) was 103%; the viability, T/C (second compound 0.0316 µM, first compound 0.01 µM) was 90.8%; the viability, T/C (second compound 0.0316 µM, first compound 0.0316 µM) is 99%; the viability, T/C (second compound 0.0316 µM, first compound 0.1 µM) is 80.7%; the viability, T/C (second compound 0.0316 µM, first compound 0.316 µM) is 88.9%; the viability, T/C (second compound 0.0316 µM, first compound 1 µM) is 66.7%. The viability, T/C was 115% (second compound 0.1 µM, first compound 0.00316 µM); 109% (second compound 0.1 µM, first compound 0.01 µM); 92.7% (second compound 0.1 µM, first compound 0.0316 µM); 92.9% (second compound 0.1 µM, first compound 0.1 µM); 86.6% (second compound 0.1 µM, first compound 0.316 µM); 66.8% (second compound 0.1 µM, first compound 1 µM). Also, the viability, T/C is, setting by setting: (second compound 0.316 µM, first compound 0.00316 µM) 82.5%; (second compound 0.316 µM, first compound 0.01 µM) 83.1%; (second compound 0.316 µM, first compound 0.0316 µM) 99%; (second compound 0.316 µM, first compound 0.1 µM) 100%; (second compound 0.316 µM, first compound 0.316 µM) 88.4%; (second compound 0.316 µM, first compound 1 µM) 62.3%. The viability, T/C (second compound 1 µM, first compound 0.00316 µM) was 95.8%; the viability, T/C (second compound 1 µM, first compound 0.01 µM) was 80.8%; the viability, T/C (second compound 1 µM, first compound 0.0316 µM) is 91%; the viability, T/C (second compound 1 µM, first compound 0.1 µM) was 96.1%; the viability, T/C (second compound 1 µM, first compound 0.316 µM) is 85.2%; the viability, T/C (second compound 1 µM, first compound 1 µM) is 64.4%. The viability, T/C reads like this: (second compound 3.16 µM, first compound 0.00316 µM) 106%; (second compound 3.16 µM, first compound 0.01 µM) 89.5%; (second compound 3.16 µM, first compound 0.0316 µM) 96.7%; (second compound 3.16 µM, first compound 0.1 µM) 75.6%; (second compound 3.16 µM, first compound 0.316 µM) 70.7%; (second compound 3.16 µM, first compound 1 µM) 68.5%. Moreover, the viability, T/C is 100% (second compound 10 µM, first compound 0.00316 µM); 86.6% (second compound 10 µM, first compound 0.01 µM); 85.3% (second compound 10 µM, first compound 0.0316 µM); 103% (second compound 10 µM, first compound 0.1 µM); 84% (second compound 10 µM, first compound 0.316 µM); 61.9% (second compound 10 µM, first compound 1 µM).
